Assay results: PMC6594919 (Pharmacology Research & Perspectives, 2019)

Experiments:
[1] = In vitro microdialysis with the intravenous EIRUS CVC catheter: drug concentrations in medium and dialysate, relative recovery (RRT, RRU); conditions: perfusate NaCl 0.9% 5 μL/min, 37°C; for Concentration dialysate: EIRUS catheter 5000 Da cutoff, immunoassay, mean (range)
[2] = Unbound drug concentration in the external medium by ultrafiltration (Centrifree) and immunoassay; conditions: mean (range)
[3] = Human plasma, immunoassay, triplicate (gentamicin marked **)
[4] = Human serum, immunoassay, triplicate (gentamicin repeated twice)
[5] = Medium 5: 0.2 mmol/L phosphate buffer with albumin 40 g/L in NaCl 0.9% pH 6.9, immunoassay, triplicate

Row | SMILES | Time after which a constant (stable) recovery was observed ([1]; EIRUS catheter, t-test: significant difference prior to 60 minutes, none after) | Unbound drug concentration medium [2, 3] | Unbound drug concentration medium [2, 4] | Unbound drug concentration medium ([2]; Medium 4: 0.2 mmol/L phosphate buffer with albumin 40 g/L pH 7.1, immunoassay, triplicate) | Unbound drug concentration medium [2, 5] | Unbound drug concentration medium ([2]; Medium 6: 0.2 mmol/L phosphate buffer with albumin 40 g/L in NaCl 1.8%, immunoassay, repeated twice) | Concentration dialysate ([1]; Human plasma, triplicate (gentamicin marked **)) | Concentration dialysate ([1]; Human serum, triplicate (gentamicin repeated twice)) | Concentration dialysate ([1]; Medium 3: 0.2 mmol/L phosphate buffer pH 7.4, triplicate) | Concentration dialysate ([1]; Medium 5: 0.2 mmol/L phosphate buffer with albumin 40 g/L in NaCl 0.9% pH 6.9, triplicate)
1 | CN[C@H](CC(C)C)C(=O)N[C@H]1C(=O)N[C@@H](CC(N)=O)C(=O)N[C@H]2C(=O)N[C@H]3C(=O)N[C@H](C(=O)N[C@H](C(=O)O)c4cc(O)cc(O)c4-c4cc3ccc4O)[C@H](O)c3ccc(c(Cl)c3)Oc3cc2cc(c3O[C@@H]2O[C@H](CO)[C@@H](O)[C@H](O)[C@H]2O[C@H]2C[C@](C)(N)[C@H](O)[C@H](C)O2)Oc2ccc(cc2Cl)[C@H]1O [Vancomycin] | 60 min | 13.2 (10.0‐14.9) mg/L | 13.2 (13.2‐13.2) mg/L | 6.7 (6.6‐7.4) mg/L | 10.3 (10.3‐10.4) mg/L | 13.3 (13.3‐13.3) mg/L |  |  |  | 
2 | CNC(C)C1CCC(N)C(OC2C(N)CC(N)C(OC3OCC(C)(O)C(NC)C3O)C2O)O1 (stereo not shown) [Gentamicin] |  | 8.9 (7.7‐10.9) mg/L | 7.7 (6.6‐8.9) mg/L |  | 7.3 (7.2‐7.4) mg/L |  | 8.4 (7.1‐9.6) mg/L | 7.1 (5.8‐8.3) mg/L | 21.5 (21.1‐21.8) mg/L | 7.5 (7.4‐7.8) mg/L
